Reference: the supplement of paper PMC10883282
± gives the standard deviation of the averaged measurements.

Key:
Test in all cases: relative viability vs DMSO control (72 h) (fraction); higher = more viable cells
G401 = test system: G401
In short: (§1)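 ATPLite readings, expressed as percent growth and averaged over up to triplicate wells, provided relative viability. Before reading, sarcoma cell lines seeded in 384-well plates to reach 80–90% confluence received 2.5 µl of serially diluted compound after 24 h, from source plates of 10 mM to 0.0002 mM. Plates were held 72 h at 37 °C, 5% CO2, with 0.1% DMSO as vehicle and a 5 µM positive control. The data were rescaled to 1 for full and 0 for none.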

SK-LMS-1 = test system: SK-LMS-1
In short: as §1

SW982 = test system: SW982
In short: as §1

SK-ES-1 = test system: SK-ES-1
In short: as §1

VA-ES-BJ = test system: VA-ES-BJ
In short: as §1

SW1353 = test system: SW1353
In short: as §1

KHOS-240S = test system: KHOS-240S
In short: as §1

RD = test system: RD
In short: as §1

HT1080 = test system: HT1080
In short: as §1

MES-SA = test system: MES-SA
In short: as §1

SYO-1 = test system: SYO-1
In short: as §1

RD-ES = test system: RD-ES
In short: as §1

Clc1ccc(Nc2nnc(Cc3ccncc3)c3ccccc23)cc1 [Vatalanib]
Settings	relative viability
G401, 0.00017 µM	0.965 ± 0.029
G401, 0.00051 µM	0.975 ± 0.03
G401, 0.00152 µM	0.954 ± 0.037
G401, 0.00457 µM	0.973 ± 0.048
G401, 0.01372 µM	0.979 ± 0.049
G401, 0.04115 µM	1 ± 0.028
G401, 0.1235 µM	0.947 ± 0.053
G401, 0.3704 µM	0.985 ± 0.024
G401, 1.111 µM	0.933 ± 0.024
G401, 3.333 µM	0.876 ± 0.029
G401, 10 µM	0.7239 ± 0.00095
HT1080, 0.00017 µM	1.01 ± 0.009
HT1080, 0.00051 µM	0.995 ± 0.036
HT1080, 0.00152 µM	0.989 ± 0.032
HT1080, 0.00457 µM	1.01 ± 0.022
HT1080, 0.01372 µM	0.993 ± 0.061
HT1080, 0.04115 µM	0.9838 ± 0.0083
HT1080, 0.1235 µM	0.986 ± 0.048
HT1080, 0.3704 µM	1 ± 0.056
HT1080, 1.111 µM	1.021 ± 0.01
HT1080, 3.333 µM	1.02 ± 0.018
HT1080, 10 µM	1.07 ± 0.038
KHOS-240S, 0.00017 µM	1.03 ± 0.023
KHOS-240S, 0.00051 µM	1.06 ± 0.048
KHOS-240S, 0.00152 µM	1.05 ± 0.017
KHOS-240S, 0.00457 µM	1.04 ± 0.064
KHOS-240S, 0.01372 µM	1.04 ± 0.021
KHOS-240S, 0.04115 µM	1.01 ± 0.029
KHOS-240S, 0.1235 µM	1.04 ± 0.02
KHOS-240S, 0.3704 µM	1.03 ± 0.02
KHOS-240S, 1.111 µM	0.986 ± 0.044
KHOS-240S, 3.333 µM	1.01 ± 0.016
KHOS-240S, 10 µM	1 ± 0.015
MES-SA, 0.00017 µM	0.897 ± 0.05
MES-SA, 0.00051 µM	0.905 ± 0.03
MES-SA, 0.00152 µM	0.908 ± 0.023
MES-SA, 0.00457 µM	0.902 ± 0.048
MES-SA, 0.01372 µM	0.925 ± 0.024
MES-SA, 0.04115 µM	0.92 ± 0.043
MES-SA, 0.1235 µM	0.922 ± 0.046
MES-SA, 0.3704 µM	0.938 ± 0.031
MES-SA, 1.111 µM	0.937 ± 0.046
MES-SA, 3.333 µM	0.919 ± 0.012
MES-SA, 10 µM	0.854 ± 0.042
RD, 0.00017 µM	1.09 ± 0.035
RD, 0.00051 µM	1.1 ± 0.031
RD, 0.00152 µM	1.1 ± 0.024
RD, 0.00457 µM	1.095 ± 0.005
RD, 0.01372 µM	1.093 ± 0.0065
RD, 0.04115 µM	1.08 ± 0.033
RD, 0.1235 µM	1.09 ± 0.025
RD, 0.3704 µM	1.12 ± 0.02
RD, 1.111 µM	1.12 ± 0.03
RD, 3.333 µM	1.11 ± 0.066
RD, 10 µM	1.03 ± 0.023
RD-ES, 0.00017 µM	0.987 ± 0.021
RD-ES, 0.00051 µM	0.954 ± 0.047
RD-ES, 0.00152 µM	0.975 ± 0.027
RD-ES, 0.00457 µM	0.983 ± 0.017
RD-ES, 0.01372 µM	0.967 ± 0.029
RD-ES, 0.04115 µM	0.959 ± 0.024
RD-ES, 0.1235 µM	0.965 ± 0.012
RD-ES, 0.3704 µM	0.956 ± 0.057
RD-ES, 1.111 µM	0.989 ± 0.043
RD-ES, 3.333 µM	0.98 ± 0.048
RD-ES, 10 µM	0.947 ± 0.029
SK-ES-1, 0.00017 µM	0.978 ± 0.03
SK-ES-1, 0.00051 µM	0.987 ± 0.065
SK-ES-1, 0.00152 µM	0.968 ± 0.053
SK-ES-1, 0.00457 µM	1.04 ± 0.044
SK-ES-1, 0.01372 µM	1.03 ± 0.026
SK-ES-1, 0.04115 µM	1.01 ± 0.03
SK-ES-1, 0.1235 µM	0.995 ± 0.024
SK-ES-1, 0.3704 µM	1.04 ± 0.024
SK-ES-1, 1.111 µM	1.05 ± 0.053
SK-ES-1, 3.333 µM	1.02 ± 0.031
SK-ES-1, 10 µM	0.91 ± 0.011
SK-LMS-1, 0.00017 µM	1.03 ± 0.027
SK-LMS-1, 0.00051 µM	1.02 ± 0.041
SK-LMS-1, 0.00152 µM	0.992 ± 0.045
SK-LMS-1, 0.00457 µM	1 ± 0.041
SK-LMS-1, 0.01372 µM	1.026 ± 0.0034
SK-LMS-1, 0.04115 µM	1 ± 0.021
SK-LMS-1, 0.1235 µM	1.016 ± 0.0066
SK-LMS-1, 0.3704 µM	0.9565 ± 0.0025
SK-LMS-1, 1.111 µM	0.967 ± 0.034
SK-LMS-1, 3.333 µM	0.938 ± 0.026
SK-LMS-1, 10 µM	0.858 ± 0.059
SW982, 0.00017 µM	1.03 ± 0.036
SW982, 0.00051 µM	1.02 ± 0.023
SW982, 0.00152 µM	1.04 ± 0.017
SW982, 0.00457 µM	1.05 ± 0.033
SW982, 0.01372 µM	1.06 ± 0.01
SW982, 0.04115 µM	1.0899 ± 0.00023
SW982, 0.1235 µM	1.065 ± 0.0094
SW982, 0.3704 µM	1.04 ± 0.048
SW982, 1.111 µM	1.03 ± 0.017
SW982, 3.333 µM	1.053 ± 0.0058
SW982, 10 µM	1.03 ± 0.013
SW1353, 0.00017 µM	0.9762 ± 0.0067
SW1353, 0.00051 µM	0.9786 ± 0.0027
SW1353, 0.00152 µM	0.939 ± 0.044
SW1353, 0.00457 µM	0.962 ± 0.04
SW1353, 0.01372 µM	0.935 ± 0.042
SW1353, 0.04115 µM	0.9589 ± 0.0081
SW1353, 0.1235 µM	0.966 ± 0.042
SW1353, 0.3704 µM	0.978 ± 0.015
SW1353, 1.111 µM	0.93 ± 0.029
SW1353, 3.333 µM	0.934 ± 0.031
SW1353, 10 µM	0.881 ± 0.022
SYO-1, 0.00017 µM	0.921 ± 0.029
SYO-1, 0.00051 µM	0.915 ± 0.048
SYO-1, 0.00152 µM	0.937 ± 0.048
SYO-1, 0.00457 µM	0.926 ± 0.013
SYO-1, 0.01372 µM	0.929 ± 0.038
SYO-1, 0.04115 µM	0.929 ± 0.049
SYO-1, 0.1235 µM	0.906 ± 0.057
SYO-1, 0.3704 µM	0.882 ± 0.052
SYO-1, 1.111 µM	0.807 ± 0.096
SYO-1, 3.333 µM	0.735 ± 0.01
SYO-1, 10 µM	0.651 ± 0.056
VA-ES-BJ, 0.00017 µM	1.01 ± 0.041
VA-ES-BJ, 0.00051 µM	1.01 ± 0.049
VA-ES-BJ, 0.00152 µM	1 ± 0.057
VA-ES-BJ, 0.00457 µM	1.04 ± 0.041
VA-ES-BJ, 0.01372 µM	1.02 ± 0.066
VA-ES-BJ, 0.04115 µM	1.02 ± 0.054
VA-ES-BJ, 0.1235 µM	1.03 ± 0.082
VA-ES-BJ, 0.3704 µM	1.05 ± 0.069
VA-ES-BJ, 1.111 µM	1.02 ± 0.053
VA-ES-BJ, 3.333 µM	1.07 ± 0.056
VA-ES-BJ, 10 µM	1.05 ± 0.031
